PubChem BioAssay AID1963856 (Molecular Pharmacology Branch, DTP, NCI, 2024)

Test system: LG0567-F671-PDC KRAS tumor spheroid viability
Assay: Anticancer human tumor LG0567-F671-PDC patient-derived lung adenocarcinoma cell line growth inhibition [KRAS2]
Details: spheroids with HUVEC and MSC; for IC50: curve of first compound; for viability, T/C: stronger effect = lower value
Method in brief: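 KRAS-mutant tumor cells were grown as spheroids with HUVEC endothelial cells and human MSCs as stroma. Targeted agents were tested alone and with KRAS pathway inhibitors. Doses started at or near clinical Cmax, or 10 microM, descending half-log.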

[1] = second compound 0.0316 µM, first compound 0.000316 µM
[2] = second compound 0.0316 µM, first compound 0.001 µM
[3] = second compound 0.0316 µM, first compound 0.00316 µM
[4] = second compound 0.0316 µM, first compound 0.01 µM
[5] = second compound 0.0316 µM, first compound 0.0316 µM
[6] = second compound 0.1 µM, first compound 0.000316 µM
[7] = second compound 0.1 µM, first compound 0.001 µM
[8] = second compound 0.1 µM, first compound 0.00316 µM
[9] = second compound 0.1 µM, first compound 0.01 µM
[10] = second compound 0.1 µM, first compound 0.0316 µM
[11] = second compound 0.316 µM, first compound 0.000316 µM
[12] = second compound 0.316 µM, first compound 0.001 µM
[13] = second compound 0.316 µM, first compound 0.00316 µM
[14] = second compound 0.316 µM, first compound 0.01 µM
[15] = second compound 0.316 µM, first compound 0.0316 µM
[16] = second compound 1 µM, first compound 0.000316 µM
[17] = second compound 1 µM, first compound 0.001 µM
[18] = second compound 1 µM, first compound 0.00316 µM
[19] = second compound 1 µM, first compound 0.01 µM
[20] = second compound 1 µM, first compound 0.0316 µM
[21] = second compound 3.16 µM, first compound 0.000316 µM
[22] = second compound 3.16 µM, first compound 0.001 µM
[23] = second compound 3.16 µM, first compound 0.00316 µM
[24] = second compound 3.16 µM, first compound 0.01 µM
[25] = second compound 3.16 µM, first compound 0.0316 µM
[26] = second compound 0.0316 µM, first compound 0.1 µM
[27] = second compound 0.1 µM, first compound 0.1 µM
[28] = second compound 0.316 µM, first compound 0.1 µM
[29] = second compound 1 µM, first compound 0.1 µM
[30] = second compound 3.16 µM, first compound 0.1 µM
[31] = second compound 0.0316 µM, first compound 0.316 µM
[32] = second compound 0.0316 µM, first compound 1 µM
[33] = second compound 0.0316 µM, first compound 3.16 µM
[34] = second compound 0.0316 µM, first compound 10 µM
[35] = second compound 0.1 µM, first compound 0.316 µM
[36] = second compound 0.1 µM, first compound 1 µM
[37] = second compound 0.1 µM, first compound 3.16 µM
[38] = second compound 0.1 µM, first compound 10 µM
[39] = second compound 0.316 µM, first compound 0.316 µM
[40] = second compound 0.316 µM, first compound 1 µM
[41] = second compound 0.316 µM, first compound 3.16 µM
[42] = second compound 0.316 µM, first compound 10 µM
[43] = second compound 1 µM, first compound 0.316 µM
[44] = second compound 1 µM, first compound 1 µM
[45] = second compound 1 µM, first compound 3.16 µM
[46] = second compound 1 µM, first compound 10 µM
[47] = second compound 3.16 µM, first compound 0.316 µM
[48] = second compound 3.16 µM, first compound 1 µM
[49] = second compound 3.16 µM, first compound 3.16 µM
[50] = second compound 3.16 µM, first compound 10 µM
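Further: drug exposure lasted seven days after spheroids formed for three days.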
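Wherever viability, T/C is given: 100% = DMSO vehicle control viability.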

Structure (SMILES): CC(=O)Nc1cccc(-n2c(=O)n(C3CC3)c(=O)c3c(Nc4ccc(I)cc4F)n(C)c(=O)c(C)c32)c1 + C=CC(=O)N1CCN(c2nc(OCC3CCCN3C)nc3c2CCN(c2cccc4cccc(C)c24)C3)CC1CC#N
- IC50 (second compound 0.0316 µM): < 0.0001 µM
- IC50 (second compound 0.1 µM): < 0.0001 µM
- IC50 (second compound 0.316 µM): < 0.0001 µM
- IC50 (second compound 1 µM): < 0.0001 µM
- IC50 (second compound 3.16 µM): < 0.0001 µM
- viability, T/C (second compound 0.0316 µM, first compound 0.0001 µM): 36.6%
- viability, T/C [1]: 35.6%
- viability, T/C [2]: 34.5%
- viability, T/C [3]: 42%
- viability, T/C [4]: 24.2%
- viability, T/C [5]: 7.65%
- viability, T/C (second compound 0.1 µM, first compound 0.0001 µM): 23.8%
- viability, T/C [6]: 32.3%
- viability, T/C [7]: 56.4%
- viability, T/C [8]: 24.6%
- viability, T/C [9]: 12.1%
- viability, T/C [10]: 4.09%
- viability, T/C (second compound 0.316 µM, first compound 0.0001 µM): 30%
- viability, T/C [11]: 33.2%
- viability, T/C [12]: 39.7%
- viability, T/C [13]: 22.1%
- viability, T/C [14]: 19.3%
- viability, T/C [15]: 5.95%
- viability, T/C (second compound 1 µM, first compound 0.0001 µM): 38.2%
- viability, T/C [16]: 37.5%
- viability, T/C [17]: 23.7%
- viability, T/C [18]: 31.7%
- viability, T/C [19]: 15.7%
- viability, T/C [20]: 6.26%
- viability, T/C (second compound 3.16 µM, first compound 0.0001 µM): 30.8%
- viability, T/C [21]: 22.8%
- viability, T/C [22]: 12.8%
- viability, T/C [23]: 12%
- viability, T/C [24]: 2.28%
- viability, T/C [25]: 4.58%

Structure (SMILES): CC(C)n1nc(-c2ccc3oc(N)nc3c2)c2c(N)ncnc21 + C=CC(=O)N1CCN(c2nc(OCC3CCCN3C)nc3c2CCN(c2cccc4cccc(C)c24)C3)CC1CC#N
- IC50 (second compound 0.0316 µM): < 0.000316 µM
- IC50 (second compound 0.1 µM): < 0.000316 µM
- IC50 (second compound 0.316 µM): < 0.000316 µM
- IC50 (second compound 1 µM): < 0.000316 µM
- IC50 (second compound 3.16 µM): < 0.000316 µM
- viability, T/C [1]: 33.2%
- viability, T/C [2]: 28.2%
- viability, T/C [3]: 20.5%
- viability, T/C [4]: 19.3%
- viability, T/C [5]: 13.4%
- viability, T/C [26]: 12.8%
- viability, T/C [6]: 29.1%
- viability, T/C [7]: 27%
- viability, T/C [8]: 18.3%
- viability, T/C [9]: 15.4%
- viability, T/C [10]: 13.7%
- viability, T/C [27]: 10.6%
- viability, T/C [11]: 32.7%
- viability, T/C [12]: 33.5%
- viability, T/C [13]: 21.2%
- viability, T/C [14]: 17.7%
- viability, T/C [15]: 11.1%
- viability, T/C [28]: 10.1%
- viability, T/C [16]: 37.6%
- viability, T/C [17]: 31.6%
- viability, T/C [18]: 25.6%
- viability, T/C [19]: 14.4%
- viability, T/C [20]: 12.5%
- viability, T/C [29]: 9.9%
- viability, T/C [21]: 35%
- viability, T/C [22]: 11.4%
- viability, T/C [23]: 14.5%
- viability, T/C [24]: 5.93%
- viability, T/C [25]: 5.55%
- viability, T/C [30]: 2.27%

Structure (SMILES): COc1cc(Nc2ncc3c(n2)-c2ccc(Cl)cc2C(c2c(F)cccc2OC)=NC3)ccc1C(=O)O + C=CC(=O)N1CCN(c2nc(OCC3CCCN3C)nc3c2CCN(c2cccc4cccc(C)c24)C3)CC1CC#N
- IC50 (second compound 0.0316 µM): < 0.0316 µM
- IC50 (second compound 0.1 µM): < 0.0316 µM
- IC50 (second compound 0.316 µM): < 0.0316 µM
- IC50 (second compound 1 µM): < 0.0316 µM
- IC50 (second compound 3.16 µM): < 0.0316 µM
- viability, T/C [5]: 32.8%
- viability, T/C [26]: 20.1%
- viability, T/C [31]: 20.5%
- viability, T/C [32]: 20.2%
- viability, T/C [33]: 18.7%
- viability, T/C [34]: 16.3%
- viability, T/C [10]: 25.7%
- viability, T/C [27]: 22.9%
- viability, T/C [35]: 17.6%
- viability, T/C [36]: 19.2%
- viability, T/C [37]: 21.8%
- viability, T/C [38]: 15%
- viability, T/C [15]: 29.2%
- viability, T/C [28]: 22.6%
- viability, T/C [39]: 20.3%
- viability, T/C [40]: 19.7%
- viability, T/C [41]: 23.3%
- viability, T/C [42]: 16.9%
- viability, T/C [20]: 27.8%
- viability, T/C [29]: 26.4%
- viability, T/C [43]: 24.6%
- viability, T/C [44]: 25.4%
- viability, T/C [45]: 26.7%
- viability, T/C [46]: 22.9%
- viability, T/C [25]: 28.7%
- viability, T/C [30]: 30.4%
- viability, T/C [47]: 30.3%
- viability, T/C [48]: 23.7%
- viability, T/C [49]: 17%
- viability, T/C [50]: 1.09%

Structure (SMILES): COc1cc2nccc(Oc3ccc(NC(=O)C4(C(=O)Nc5ccc(F)cc5)CC4)cc3)c2cc1OC + C=CC(=O)N1CCN(c2nc(OCC3CCCN3C)nc3c2CCN(c2cccc4cccc(C)c24)C3)CC1CC#N
- IC50 (second compound 0.0316 µM): < 0.0316 µM
- IC50 (second compound 0.1 µM): < 0.0316 µM
- IC50 (second compound 0.316 µM): < 0.0316 µM
- IC50 (second compound 1 µM): < 0.0316 µM
- IC50 (second compound 3.16 µM): < 0.0316 µM
- viability, T/C [5]: 27%
- viability, T/C [26]: 35.9%
- viability, T/C [31]: 23.9%
- viability, T/C [32]: 20.4%
- viability, T/C [33]: 17.8%
- viability, T/C [34]: 52.5%
- viability, T/C [10]: 23.5%
- viability, T/C [27]: 22.9%
- viability, T/C [35]: 26.6%
- viability, T/C [36]: 18.4%
- viability, T/C [37]: 10.2%
- viability, T/C [38]: 45.3%
- viability, T/C [15]: 25.2%
- viability, T/C [28]: 24.8%
- viability, T/C [39]: 28.4%
- viability, T/C [40]: 17.2%
- viability, T/C [41]: 10.2%
- viability, T/C [42]: 41.3%
- viability, T/C [20]: 30.9%
- viability, T/C [29]: 27.6%
- viability, T/C [43]: 23.7%
- viability, T/C [44]: 20.9%
- viability, T/C [45]: 13.3%
- viability, T/C [46]: 33%
- viability, T/C [25]: 13.2%
- viability, T/C [30]: 18.7%
- viability, T/C [47]: 11.4%
- viability, T/C [48]: 17.6%
- viability, T/C [49]: 1.46%
- viability, T/C [50]: 1.76%
